Patent US20020137929A1, “1 - (3-heterocyclylphenyl) isothiourea, -isourea, -guanidine and -amidine herbicidal agents” (Intellectual Property Department, BASF Aktiengesellschaft, priority 1998, published 2002)

Experiments:
AMBEL (Ragweed, Common) [1] = assay: Postemergence herbicidal evaluation; type: in vivo, Ambrosia artemisifolia; conditions: postemergence
Procedure, shortened: (§1)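 Compound is applied as a foliar spray to seedlings about two weeks old, formulated in equal parts acetone and water with 0.5% TWEEN 20 and delivered at 40 psi to give about 0.0156–0.500 kg per hectare. Injury is rated visually 0–9 after four to five weeks.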

[2] = system: IPOHE (Morningglory, Ivyleaf); assay: Postemergence herbicidal evaluation; type: in vivo, Ipomoea hederacea; conditions: postemergence
Procedure, shortened: as §1

[3] = system: GLXMAW (Soybean, Williams); assay: Postemergence herbicidal evaluation; type: in vivo, Glycine max, (L.) Merr. cv Williams; conditions: postemergence
Procedure, shortened: as §1

ZEAMX (Corn, Field) = assay: Postemergence herbicidal evaluation; type: in vivo, Zea mays; conditions: postemergence
Procedure, shortened: as §1

ABUTH (Velvetleaf) = assay: Preemergence herbicidal evaluation; type: in vivo, Abutilon theophrasti; conditions: rated 4-5 weeks after treatment; for ABUTH rating: preemergence, 0-9 scale
Procedure, shortened: (§2)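 Visual 0-9 rating vs control (stand, vigor, malformation, size, chlorosis, overall appearance), scored 4-5 wk after spraying. Seeded soil cups were treated preemergence with compound in aqueous acetone, ~0.0156-0.500 kg/ha equivalent.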

AMBEL (Ragweed, Common) [4] = assay: Preemergence herbicidal evaluation; type: in vivo, Ambrosia artemisifolia; conditions: rated 4-5 weeks after treatment; for AMBEL rating: preemergence, 0-9 scale
Procedure, shortened: as §2

CASOB (Sicklepod) = assay: Preemergence herbicidal evaluation; type: in vivo, Cassia obtusifolia; conditions: rated 4-5 weeks after treatment; for CASOB rating: preemergence, 0-9 scale
Procedure, shortened: as §2

GALAP (Galium) = assay: Preemergence herbicidal evaluation; type: in vivo, Galium aparine; conditions: rated 4-5 weeks after treatment; for GALAP rating: preemergence, 0-9 scale
Procedure, shortened: as §2

ECHCG (Barnyardgrass) = assay: Preemergence herbicidal evaluation; type: in vivo, Echinochloa crus-galli; conditions: rated 4-5 weeks after treatment; for ECHCG rating: preemergence, 0-9 scale
Procedure, shortened: as §2

SETVI (Foxtail, Green) = assay: Preemergence herbicidal evaluation; type: in vivo, Setaria viridis; conditions: rated 4-5 weeks after treatment; for SETVI rating: preemergence, 0-9 scale
Procedure, shortened: as §2

[5] = system: GLXMAW (Soybean, Williams); assay: Preemergence herbicidal evaluation; type: in vivo, Glycine max, (L.) Merr. cv Williams; conditions: rated 4-5 weeks after treatment; for GLXMAW rating: preemergence, 0-9 scale
Procedure, shortened: as §2

CYPSE (Flatsedge) = assay: Preemergence weed control under flooded paddy conditions; type: in vivo, Cyperus serotinus; conditions: rated 3-4 weeks after treatment
Procedure, shortened: (§3)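 Herbicidal effect is scored visually on a 0-9 scale against an untreated control, three to four weeks after compounds are pipetted into the flood water (1.5 to 3 cm deep) over seeds planted in silt loam at 0.5 cm depth. Rates: about 0.0313 to 0.500 kg/ha.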

[6] = system: SAGPY (Arrowhead (Pygmaea)); assay: as above; type: in vivo, Sagittaria pygmaea; conditions: rated 3-4 weeks after treatment
Procedure, shortened: as §3

[7] = rate 0.0156 kg/ha, rating scale 0-9
[8] = rate 0.0313 kg/ha, rating scale 0-9
[9] = rate 0.0625 kg/ha, rating scale 0-9
[10] = rate 0.1250 kg/ha, rating scale 0-9
[11] = rate 0.2500 kg/ha, rating scale 0-9

With `C=CCOC(=O)CN1C(=O)CSC1=Nc1cc(-n2c(=O)cc(C(F)(F)F)n(C)c2=O)c(F)cc1Cl` [Compound 106, Allyl 2-{{2-chloro-5-[3,6-dihydro-3-methyl-2,6-dioxo-4-(trifluoromethyl)-1(2H)-pyrimidinyl]-4-fluorophenyl}imino}-4-oxo-3-thiazolidineacetate] the “herbicidal rating AMBEL” value (AMBEL (Ragweed, Common) [1]; rate 0.0158 kg/ha) was 7.0, the “herbicidal rating AMBEL” value (AMBEL (Ragweed, Common) [1]; rate 0.0315 kg/ha) was 7.0 and the “herbicidal rating AMBEL” value (AMBEL (Ragweed, Common) [1]; rate 0.0630 kg/ha) was 9.0. The “herbicidal rating IPOHE” value ([2]; rate 0.0158 kg/ha) was 9.0, the “herbicidal rating IPOHE” value ([2]; rate 0.0315 kg/ha) was 9.0 and the “herbicidal rating IPOHE” value ([2]; rate 0.0630 kg/ha) was 9.0. The “herbicidal rating GLXMAW” value ([3]; rate 0.0158 kg/ha) was 4.5, the “herbicidal rating GLXMAW” value ([3]; rate 0.0315 kg/ha) was 5.5 and the “herbicidal rating GLXMAW” value ([3]; rate 0.0630 kg/ha) was 6.0. For the same molecule, the “herbicidal rating ZEAMX” value (ZEAMX (Corn, Field); rate 0.0158 kg/ha) was 5.0, the “herbicidal rating ZEAMX” value (ZEAMX (Corn, Field); rate 0.0315 kg/ha) was 6.5 and the “herbicidal rating ZEAMX” value (ZEAMX (Corn, Field); rate 0.0630 kg/ha) was 7.0. For the same molecule, the ABUTH rating (ABUTH (Velvetleaf); 0.0313 kg/ha) was 6.5, the ABUTH rating (ABUTH (Velvetleaf); 0.0625 kg/ha) was 8.0 and the ABUTH rating (ABUTH (Velvetleaf); 0.1250 kg/ha) was 9.0. For the same molecule, the ABUTH rating (ABUTH (Velvetleaf); 0.2500 kg/ha) was 9.0, the “Preemergence herbicidal rating ABUTH” value (ABUTH (Velvetleaf); rate 0.0156 kg/ha) was 5.0 and the AMBEL rating (AMBEL (Ragweed, Common) [4]; 0.0313 kg/ha) was 1.5. The AMBEL rating (AMBEL (Ragweed, Common) [4]; 0.0625 kg/ha) was 5.0, the AMBEL rating (AMBEL (Ragweed, Common) [4]; 0.1250 kg/ha) was 7.0 and the AMBEL rating (AMBEL (Ragweed, Common) [4]; 0.2500 kg/ha) was 9.0. For the same molecule, the “Preemergence herbicidal rating AMBEL” value (AMBEL (Ragweed, Common) [4]; rate 0.0156 kg/ha) was 1.5, the CASOB rating (CASOB (Sicklepod); 0.0313 kg/ha) was 1.5 and the CASOB rating (CASOB (Sicklepod); 0.0625 kg/ha) was 2.0. The CASOB rating (CASOB (Sicklepod); 0.1250 kg/ha) was 4.0, the CASOB rating (CASOB (Sicklepod); 0.2500 kg/ha) was 6.0 and the “Preemergence herbicidal rating CASOB” value (CASOB (Sicklepod); rate 0.0156 kg/ha) was 0.0. It also gave a GALAP rating (GALAP (Galium); 0.0313 kg/ha) of 2.0, a GALAP rating (GALAP (Galium); 0.0625 kg/ha) of 3.0 and a GALAP rating (GALAP (Galium); 0.1250 kg/ha) of 6.0. For the same molecule, the GALAP rating (GALAP (Galium); 0.2500 kg/ha) was 7.0, the “Preemergence herbicidal rating GALAP” value (GALAP (Galium); rate 0.0156 kg/ha) was 1.0 and the ECHCG rating (ECHCG (Barnyardgrass); 0.0313 kg/ha) was 1.0. For the same molecule, the ECHCG rating (ECHCG (Barnyardgrass); 0.0625 kg/ha) was 1.5, the ECHCG rating (ECHCG (Barnyardgrass); 0.1250 kg/ha) was 2.0 and the ECHCG rating (ECHCG (Barnyardgrass); 0.2500 kg/ha) was 7.0. For the same molecule, the “Preemergence herbicidal rating ECHCG” value (ECHCG (Barnyardgrass); rate 0.0156 kg/ha) was 0.0, the SETVI rating (SETVI (Foxtail, Green); 0.0313 kg/ha) was 0.5 and the SETVI rating (SETVI (Foxtail, Green); 0.0625 kg/ha) was 4.5. The SETVI rating (SETVI (Foxtail, Green); 0.1250 kg/ha) was 9.0, the SETVI rating (SETVI (Foxtail, Green); 0.2500 kg/ha) was 9.0 and the “Preemergence herbicidal rating SETVI” value (SETVI (Foxtail, Green); rate 0.0156 kg/ha) was 0.0. It also gave a GLXMAW rating ([5]; 0.0313 kg/ha) of 1.5, a GLXMAW rating ([5]; 0.0625 kg/ha) of 2.0 and a GLXMAW rating ([5]; 0.1250 kg/ha) of 3.5. For the same molecule, the GLXMAW rating ([5]; 0.2500 kg/ha) was 5.0, the “Preemergence herbicidal rating GLXMAW” value ([5]; rate 0.0156 kg/ha) was 1.0 and the “CYPSE herbicidal effect rating” value (CYPSE (Flatsedge); 0.0313 kg/ha) was 0.0. The “CYPSE herbicidal effect rating” value (CYPSE (Flatsedge); 0.0625 kg/ha) was 0.0, the “CYPSE herbicidal effect rating” value (CYPSE (Flatsedge); 0.1250 kg/ha) was 2.0 and the “CYPSE herbicidal effect rating” value (CYPSE (Flatsedge); 0.2500 kg/ha) was 6.0. The “SAGPY herbicidal effect rating” value ([6]; 0.0313 kg/ha) was 3.0, the “SAGPY herbicidal effect rating” value ([6]; 0.0625 kg/ha) was 4.0 and the “SAGPY herbicidal effect rating” value ([6]; 0.1250 kg/ha) was 5.0. The “SAGPY herbicidal effect rating” value ([6]; 0.2500 kg/ha) was 7.0.
`Cc1cccc(CN2C(=O)CSC2=Nc2cc(-n3c(=O)cc(C(F)(F)F)n(C)c3=O)c(F)cc2Cl)c1` [Compound 130, 3-{4-Chloro-2-fluoro-5-{[3-(m-methylbenzyl)-4-oxo-2-thiazolidinylidene]amino}phenyl}-1-methyl-6-(trifluoromethyl)-2,4 (1H, 3H)-pyrimidinedione] was tested, and the “herbicidal rating AMBEL” value (AMBEL (Ragweed, Common) [1]; rate 0.0156 kg/ha) was 9.0, the “herbicidal rating AMBEL” value (AMBEL (Ragweed, Common) [1]; rate 0.0313 kg/ha) was 9.0 and the “herbicidal rating AMBEL” value (AMBEL (Ragweed, Common) [1]; rate 0.0625 kg/ha) was 9.0. For the same molecule, the “herbicidal rating IPOHE” value ([2]; rate 0.0156 kg/ha) was 9.0, the “herbicidal rating IPOHE” value ([2]; rate 0.0313 kg/ha) was 9.0 and the “herbicidal rating IPOHE” value ([2]; rate 0.0625 kg/ha) was 9.0. The “herbicidal rating GLXMAW” value ([3]; rate 0.0156 kg/ha) was 5.5, the “herbicidal rating GLXMAW” value ([3]; rate 0.0313 kg/ha) was 7.0 and the “herbicidal rating GLXMAW” value ([3]; rate 0.0625 kg/ha) was 8.0. For the same molecule, the “herbicidal rating ZEAMX” value (ZEAMX (Corn, Field); rate 0.0156 kg/ha) was 4.5, the “herbicidal rating ZEAMX” value (ZEAMX (Corn, Field); rate 0.0313 kg/ha) was 4.5 and the “herbicidal rating ZEAMX” value (ZEAMX (Corn, Field); rate 0.0625 kg/ha) was 5.0. The “Preemergence herbicidal rating ABUTH” value (ABUTH (Velvetleaf); [7]) was 1.0, the “Preemergence herbicidal rating ABUTH” value (ABUTH (Velvetleaf); [8]) was 9.0 and the “Preemergence herbicidal rating ABUTH” value (ABUTH (Velvetleaf); [9]) was 9.0. For the same molecule, the “Preemergence herbicidal rating ABUTH” value (ABUTH (Velvetleaf); [10]) was 9.0, the “Preemergence herbicidal rating ABUTH” value (ABUTH (Velvetleaf); [11]) was 9.0 and the “Preemergence herbicidal rating AMBEL” value (AMBEL (Ragweed, Common) [4]; [7]) was 0.0. For the same molecule, the “Preemergence herbicidal rating AMBEL” value (AMBEL (Ragweed, Common) [4]; [8]) was 1.0, the “Preemergence herbicidal rating AMBEL” value (AMBEL (Ragweed, Common) [4]; [9]) was 7.0 and the “Preemergence herbicidal rating AMBEL” value (AMBEL (Ragweed, Common) [4]; [10]) was 9.0. The “Preemergence herbicidal rating AMBEL” value (AMBEL (Ragweed, Common) [4]; [11]) was 9.0, the “Preemergence herbicidal rating CASOB” value (CASOB (Sicklepod); [7]) was 0.0 and the “Preemergence herbicidal rating CASOB” value (CASOB (Sicklepod); [8]) was 1.0. The “Preemergence herbicidal rating CASOB” value (CASOB (Sicklepod); [9]) was 2.0, the “Preemergence herbicidal rating CASOB” value (CASOB (Sicklepod); [11]) was 3.0 and the “Preemergence herbicidal rating GALAP” value (GALAP (Galium); [7]) was 0.0. The “Preemergence herbicidal rating GALAP” value (GALAP (Galium); [9]) was 0.0, the “Preemergence herbicidal rating GALAP” value (GALAP (Galium); [10]) was 2.0 and the “Preemergence herbicidal rating GALAP” value (GALAP (Galium); [11]) was 2.0. For the same molecule, the “Preemergence herbicidal rating ECHCG” value (ECHCG (Barnyardgrass); [7]) was 0.0, the “Preemergence herbicidal rating ECHCG” value (ECHCG (Barnyardgrass); [8]) was 0.0 and the “Preemergence herbicidal rating ECHCG” value (ECHCG (Barnyardgrass); [9]) was 1.0. The “Preemergence herbicidal rating ECHCG” value (ECHCG (Barnyardgrass); [10]) was 4.0, the “Preemergence herbicidal rating ECHCG” value (ECHCG (Barnyardgrass); [11]) was 7.0 and the “Preemergence herbicidal rating SETVI” value (SETVI (Foxtail, Green); [7]) was 0.0. The “Preemergence herbicidal rating SETVI” value (SETVI (Foxtail, Green); [8]) was 6.0, the “Preemergence herbicidal rating SETVI” value (SETVI (Foxtail, Green); [9]) was 7.0 and the “Preemergence herbicidal rating SETVI” value (SETVI (Foxtail, Green); [10]) was 7.0. For the same molecule, the “Preemergence herbicidal rating SETVI” value (SETVI (Foxtail, Green); [11]) was 9.0, the “Preemergence herbicidal rating GLXMAW” value [5, 7] was 0.0 and the “Preemergence herbicidal rating GLXMAW” value [5, 8] was 0.0. For the same molecule, the “Preemergence herbicidal rating GLXMAW” value [5, 9] was 2.0, the “Preemergence herbicidal rating GLXMAW” value [5, 10] was 3.0 and the “Preemergence herbicidal rating GLXMAW” value [5, 11] was 5.0. For the same molecule, the “herbicidal effect rating, CYPSE” value (CYPSE (Flatsedge); 0.0313 kg/ha) was 5.0, the “herbicidal effect rating, CYPSE” value (CYPSE (Flatsedge); 0.0625 kg/ha) was 5.0 and the “herbicidal effect rating, CYPSE” value (CYPSE (Flatsedge); 0.1250 kg/ha) was 0.0. For the same molecule, the “herbicidal effect rating, CYPSE” value (CYPSE (Flatsedge); 0.2500 kg/ha) was 7.0, the “herbicidal effect rating, SAGPY” value ([6]; 0.0313 kg/ha) was 4.0 and the “herbicidal effect rating, SAGPY” value ([6]; 0.0625 kg/ha) was 4.0. For the same molecule, the “herbicidal effect rating, SAGPY” value ([6]; 0.1250 kg/ha) was 0.0 and the “herbicidal effect rating, SAGPY” value ([6]; 0.2500 kg/ha) was 3.0.
